In brackets after ≈: the same amount, converted by molar mass. Starred links: 1 amine or outer side, 2 acyl side, 3 side chain; linkers in the order of their positions; H or OH if unused. Positions of bridges follow the written chain, without caps; N, C: chain ends. Non-standard residues stand in square brackets, D forms with d. Residues, ends and D or L forms follow the SMILES beside them. No end group written: not given here. *: point of attachment. C20 diacid = O=C(O)CCCCCCCCCCCCCCCCCCC(=O)*; C18 diacid = O=C(O)CCCCCCCCCCCCCCCCC(=O)*; γGlu = O=C(O)[C@H](CCC(=O)[*:2])N[*:1]; AEEA = NCCOCCOCC(=O)O
Key:
[1] = PK of CNP compounds after i.v. and s.c. administration to rats; conditions: male, Sprague Dawley, in vivo, iv, rat, i.v., about 100 nmol/kg
Description: In order to assess the i.v. and s.c. PK/PD profile of CNP compounds of the present invention, formulations of CNP compounds were administered to rats, blood samples taken and exposure and cGMP response measured.
Quantitative plasma analysis of CNP-compounds: Plasma concentrations of CNP compounds were assayed by plasma protein precipitation and analysed by turboflow liquid chromatography mass spectrometry (TF-LC-MS). Calibrators were prepared by spiking either blank rat or minipig plasma with the relevant CNP compound in the range from 0.5 to 2000 nM. Calibrators, plasma blanks or study samples were prepared for TF-LC-MS by protein precipitation by adding three or four volumes of either ethanol or methanol containing 20 nM of internal standard to one volume of sample. For some compounds, formic acid was added to the precipitation reagent (the final concentration was 1% v/v). After the addition of the precipitation reagent, the mixture was centrifuged at 6200 rpm at 4° C. for 30 minutes. After centrifugation, one volume of supernatant was mixed with two volumes of water (with 1% v/v formic acid). The mixture was analysed by TF-LC-MS using a Cyclone turboflow column (0.5×50 mm, ThermoFisher Scientific) and either a XBridge Protein BEH C4 3.5 μm 300 Åor a XBridge Protein BEH C18 3.5 μm 130 Åanalytical column (both were 50×2.1 mm and obtained from Waters). […] The mass spectrometer was operated in positive ionisation mode. A TSQ Altis mass spectrometer (ThermoFisher Scientific) was used as detector in selected reaction monitoring mode (specific transition were optimised for each CNP compound). Linear calibration curves (weighed 1/×2) were used for calculating the concentration in the plasma samples. Quality control samples were included. The deviation between nominal and calculated concentration in the calibrators and quality control samples were below 15%.
Animals and dosing: Groups of 4-6 rats (male, Sprague Dawley, 350 g at arrival, Janvier, France) per compound and route of administration were dosed with a CNP compound formulated either in A) 8 mM sodium phosphate, 250 mM glycerol, 0.007% polysorbate 20, pH 7.4 or B) 5 mM sodium acetate, 250 mM glycerol, 0.007% polysorbate 20, pH 4.0 depending on the respective compound. S.c. dose was 300 nmol/kg, at a concentration of […] resulting in a dosing volume of 0.3 mL/kg, whereas i.v. dose was 100 nmol/kg, at a concentration of […] resulting in a dosing volume of 1 mL/kg.
Sampling: Sublingual blood samples of 250 uL were collected from unanaesthetised rats in EDTA-coated vials (Microvette 600K3E ref #15.1673.100 Sarstedt) at baseline (-1 h before dosing) as well as 5 min (only i.v. dosed groups), 2 h, 6 h, 24 h, 48 h and 72 h (only for exposure analysis) post-dosing. The blood samples were quickly stored on ice and centrifuged (4° C., 8000 RPM, 5 min) within 10 min of collection. Plasma samples of 50 μL were transferred to each micronic tube for either exposure or cGMP analysis, kept on dry ice and stored in a freezer (−20° C.). Rats had access to food (Altromin) and tap water ad libitum.
Analysis: PK parameters were calculated by non-compartment analysis (NCA) using software Phoenix WinNonlin (ver. 8.1 or later, Certara) for each animal. Clearance (Cl) was calculated as: Dose/AUCinf (linear up, log down). […] Bioavailability was calculated as dose normalized AUC's: (AUC(sc)/Dose(sc))/(AUC(iv)/Dose(iv)). Values in the table are means from individual animals (n=4-6 individual animals). The subsequent plots for cGMP plasma concentration versus time are (Y-axis) mean cGMP concentration (n=4-6 individual animals) after IV dosing and (X-axis) nominal plasma sampling time.
Plasma cGMP are reported as the mean.

[2] = target: T1, human natriuretic peptide receptor 2 (hNPR2) (Homo sapiens, UniProt P20594); assay: In vitro hNPR2 activity assay (cGMP GloSensor reporter, HEK293); format: cell-based; conditions: for hNPR2 0% HSA. [EC50% rel CNP]: potency relative to CNP22 (0065)
T1 construct: expressed in transfected cells; host or cells: HEK293 (ATCC CRL-1573), clone 35, co-transfected with pGloSensor-42F
T1 sequence (P20594 23-1047): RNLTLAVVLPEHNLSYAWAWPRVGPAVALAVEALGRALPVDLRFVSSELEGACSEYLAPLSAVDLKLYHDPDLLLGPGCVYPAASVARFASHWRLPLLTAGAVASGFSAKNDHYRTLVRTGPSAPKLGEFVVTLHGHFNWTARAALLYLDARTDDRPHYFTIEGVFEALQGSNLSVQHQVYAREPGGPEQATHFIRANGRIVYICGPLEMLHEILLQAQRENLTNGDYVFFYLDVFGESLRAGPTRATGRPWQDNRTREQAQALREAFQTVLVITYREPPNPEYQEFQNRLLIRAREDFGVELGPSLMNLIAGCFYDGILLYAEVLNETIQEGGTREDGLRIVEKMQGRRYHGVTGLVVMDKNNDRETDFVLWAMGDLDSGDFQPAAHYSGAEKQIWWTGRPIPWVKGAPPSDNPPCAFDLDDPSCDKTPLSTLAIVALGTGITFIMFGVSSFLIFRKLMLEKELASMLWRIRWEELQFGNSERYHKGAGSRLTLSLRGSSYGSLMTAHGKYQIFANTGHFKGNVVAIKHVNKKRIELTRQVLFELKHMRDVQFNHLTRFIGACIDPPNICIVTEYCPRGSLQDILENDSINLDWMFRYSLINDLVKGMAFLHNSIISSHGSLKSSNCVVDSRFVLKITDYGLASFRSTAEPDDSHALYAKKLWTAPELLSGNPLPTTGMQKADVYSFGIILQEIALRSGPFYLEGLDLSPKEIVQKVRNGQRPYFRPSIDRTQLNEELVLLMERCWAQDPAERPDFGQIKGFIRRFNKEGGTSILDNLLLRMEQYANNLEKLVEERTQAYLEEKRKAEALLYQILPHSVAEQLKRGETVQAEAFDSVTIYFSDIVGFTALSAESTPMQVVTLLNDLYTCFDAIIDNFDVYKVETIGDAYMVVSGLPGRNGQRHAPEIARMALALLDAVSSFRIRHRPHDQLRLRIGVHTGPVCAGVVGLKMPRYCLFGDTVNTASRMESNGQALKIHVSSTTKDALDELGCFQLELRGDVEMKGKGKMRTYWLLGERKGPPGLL
Method in brief: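 Potency is the EC50 from a four-parameter logistic fit, also expressed relative to the in-plate CNP22 control (×100), with at least two replicates. Compounds (ten concentrations, […], HSA-free diluent with 1% OVA, 0.01% Tween20) were incubated 30 min at 37 °C on HEK293 cells co-expressing hNPR2 and a GloSensor cGMP luciferase. Luminescence detected with Bright-Glo.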

[3] = Solubility of CNP compounds at pH 4.0 and pH 6.5; format: physicochemical; conditions: 8 mM sodium phosphate, 23 mg/mL glycerol, pH 6.5, room temperature; read-out: Solubility at pH 6.5
Description: In order to assess the suitability of CNP compounds for a soluble liquid formulation, the solubility of CNP compounds in pharmaceutically relevant buffers were measured. Solubility at two different pH-levels (pH 4.0 and pH 6.5) was examined as pH is expected to affect solubility.
Preparation of pH 4.0 samples: The pH 4.0 samples of the CNP compounds were prepared by mixing freeze dried peptide with a pH 4.0 5 mM sodium acetate, 250 mM glycerol buffer at room temperature to a nominal concentration of at least 4000-5000 nmol/mL. The pH of the samples was measured and adjusted to pH 4.0 and the samples were allowed to equilibrate at room temperature until next day if not fully dissolved.
Preparation of pH 6.5 samples: The pH 6.5 samples of the CNP compounds were prepared by dissolving the freeze dried peptide in water. While stirring, a part of the peptide solution was transferred to a buffer consisting of 41 mM sodium phosphate and 118 mg/mL glycerol, pH 7.5-8.0, followed by addition of diluted sodium hydroxide followed by another part of the peptide solution and further addition of diluted sodium hydroxide. This procedure was repeated until all of the peptide solution had been added where a nominal concentration of at least 4000-5000 nmol/mL had been reached and the buffer composition was 8 mM sodium phosphate, 23 mg/mL glycerol. The pH of the samples were measured and adjusted to pH 6.5 and the samples were allowed to equilibrate at room temperature until next day if not fully dissolved.
Procedure: Samples at pH 4.0 were prepared as described above and the compound concentration in the supernatant was determined using CAD (Method F, CAD02).
Samples at pH 6.5 were prepared as described above and peptide concentration in the supernatant was determined by CAD (Method F, CAD02).

| Compound | hNPR2 0% HSA. [EC50% rel CNP] [2] [%] | further results |
| --- | --- | --- |
| CC[C@H](C)[C@@H]1NC(=O)[C@H](CCCNC(=N)N)NC(=O)[C@H](CC(=O)O)NC(=O)[C@H](CC(C)C)NC(=O)[C@@H]2CCCN2C(=O)[C@H](CC(C)C)NC(=O)CNC(=O)[C@H](Cc2ccccc2)NC(=O)[C@@H](NC(=O)CNC(=O)[C@H](CCCCN)NC(=O)[C@H](CO)NC(=O)[C@H](CC(C)C)NC(=O)CNC(=O)[C@H](CCCCN)NC(=O)[C@H](CCCCN)NC(=O)[C@H](CCC(N)=O)NC(=O)[C@H](C)NC(=O)CNC(=O)[C@H](CCC(=O)O)NC(=O)[C@H](Cc2ccc(O)cc2)NC(=O)COCCOCCNC(=O)COCCOCCNC(=O)CC[C@H](NC(=O)CCCCCCCCCCCCCCCCCCC(=O)O)C(=O)O)CSSC[C@@H](C(=O)O)NC(=O)CNC(=O)[C@H](CC(C)C)NC(=O)CNC(=O)[C@H](CO)NC(=O)[C@H](CC(C)C)NC(=O)[C@H](CO)NC(=O)CNC1=O [compound 1376] ({C20 diacid-γGlu-AEEA-AEEA}-YEGAQKKGLSKGCFGLPLDRIGSLSGLGC-OH; disulfide 13-29) | – | clearance ([1]; read-out: Cl (L/hr/kg), i.v. administration (converted)): 0.00418 L/h/kg; half-life ([1]; read-out: T½ (hr), i.v. administration (converted)): 9.55 h |
| CC[C@H](C)[C@@H]1NC(=O)[C@H](CCCNC(=N)N)NC(=O)[C@H](CC(=O)O)NC(=O)[C@H](CC(C)C)NC(=O)[C@@H]2CCCN2C(=O)[C@H](CC(C)C)NC(=O)CNC(=O)[C@H](Cc2ccccc2)NC(=O)[C@@H](NC(=O)CNC(=O)[C@H](CO)NC(=O)[C@H](CO)NC(=O)[C@@H](NC(=O)CNC(=O)[C@@H](NC(=O)[C@H](Cc2c[nH]cn2)NC(=O)[C@H](CCC(N)=O)NC(=O)[C@H](C)NC(=O)CNC(=O)[C@H](Cc2c[nH]cn2)NC(=O)[C@H](Cc2ccc(O)cc2)NC(=O)[C@H](CCCCN)NC(=O)[C@H](CCCNC(=N)N)NC(=O)[C@H](C)NC(=O)COCCOCCNC(=O)COCCOCCNC(=O)CC[C@H](NC(=O)CC[C@H](NC(=O)CCCCCCCCCCCCCCCCC(=O)O)C(=O)O)C(=O)O)[C@@H](C)O)C(C)C)CSSC[C@@H](C(=O)O)NC(=O)CNC(=O)[C@H](CC(C)C)NC(=O)CNC(=O)[C@H](CO)NC(=O)[C@H](CC(C)C)NC(=O)[C@H](CO)NC(=O)CNC1=O [compound 1419] ({C18 diacid-γGlu-γGlu-AEEA-AEEA}-ARKYHGAQHTGVSSGCFGLPLDRIGSLSGLGC-OH; disulfide 16-32) | 37.2 | solubility [3]: 318 µM (≈ 1300 µg/mL) |
| CC[C@H](C)[C@@H]1NC(=O)[C@H](CCCNC(=N)N)NC(=O)[C@H](CC(=O)O)NC(=O)[C@H](CC(C)C)NC(=O)[C@H](CCCCN)NC(=O)[C@H](CC(C)C)NC(=O)CNC(=O)[C@H](Cc2ccccc2)NC(=O)[C@@H](NC(=O)CNC(=O)[C@H](CCCCN)NC(=O)[C@H](CO)NC(=O)[C@H](CC(C)C)NC(=O)CNC(=O)[C@H](CCCCN)NC(=O)[C@H](CCCCN)NC(=O)[C@H](CC(N)=O)NC(=O)[C@H](C)NC(=O)CNC(=O)[C@H](CCCCN)NC(=O)[C@H](Cc2ccc(O)cc2)NC(=O)[C@H](CCCCN)NC(=O)[C@H](CCCNC(=N)N)NC(=O)[C@H](C)NC(=O)[C@H](CC(N)=O)NC(=O)[C@@H]2CCCN2C(=O)[C@H](Cc2c[nH]cn2)NC(=O)[C@H](CCC(=O)O)NC(=O)[C@@H](N)CCC(N)=O)CSSC[C@@H](C(=O)O)NC(=O)CNC(=O)[C@H](CC(C)C)NC(=O)CNC(=O)[C@H](CO)NC(=O)[C@H](CCSC)NC(=O)[C@H](CO)NC(=O)CNC1=O [compound 1510] | 139.2 | EC50 ([2]; 0% HSA, HEK293-hNPR2/GloSensor cells): 0.05 nM |
| {C18 diacid-γGlu-AEEA-AEEA}-GQAPGQAPGQAPGQAPGQAPGLSKGCFGLKLDRIGSMSGLGC-OH (disulfide 26-42) [compound 0230] | 0.4 | – |
| {C18 diacid}-EEEEE[AEEA][AEEA][AEEA][AEEA]ARKYKGAQKKGLSQGCFGLPLDRIGSLSGLGC (disulfide 25-41) [compound 1475] | 46.5 | – |
| {C18 diacid}-EGEGEGEGE[AEEA][AEEA]ARKYKGAQKKGLSQGCFGLPLDRIGSLSGLGC-OH (disulfide 27-43) [compound 1476] | 48.4 | – |

Reference: US20240209028A1, “CNP COMPOUNDS” (priority 2022, published 2024)
